# Experimental data published in patent publication EP3882250B1, “TETRAHYDROPYRANYL AMINO-PYRROLOPYRIMIDINONE FOR USE IN TREATING BTK-MEDIATED DISORDERS” (ArQule, Inc., priority 2015, dated 2017).
# Key:
# TMD-8 cells = experiment: Anti-proliferation Assay (MTS), TMD-8 cells; format: cell-based; conditions: Homo sapiens, TMD8, treated for 72 hours, MTS cell survival
# Description: (§1) Cell survival is determined by a MTS assay. Briefly, cells (i.e., TMD-8 cells or Rec-1 cells) are plated in a 96-well plate, cultured in complete growth medium, and then treated with various drugs and drug combinations. MTS/PMS is added and incubated, followed by assessment of cell viability using the microplate reader. Data is normalized to untreated controls and analyzed with Microsoft Excel.
# (§2) Cell survival was determined by the MTS assay. Briefly, cells (i.e., TMD-8 cells or Rec-1 cells) were plated in a 96-well plate at 2,000-10,000 cells per well, cultured for 24 hours in complete growth medium, and then treated with various drugs and drug combinations for 72 hours. MTS/PMS was added and incubated for 4 hour, followed by assessment of cell viability using the microplate reader (absorbance at 490 nm). Data were normalized to untreated controls and analyzed with Microsoft Excel.
# Rec-1 cells = experiment: Anti-proliferation Assay (MTS), Rec-1 cells; format: cell-based; conditions: Homo sapiens, Rec1, treated for 72 hours, MTS cell survival
# Description: as §1, §2
smiles,measurement,setting,value
"O=C(c1ccc(Oc2ccccc2)cc1Cl)c1c[nH]c2ncnc(N[C@@H]3CC[C@@H](CO)OC3)c12 [Compound (I), (2-chloro-4-phenoxyphenyl)(4-(((3R,6S)-6-(hydroxymethyl)tetrahydro-2H-pyran-3-yl)amino)-7H-pyrrolo[2,3-d]pyrimidin-5-yl)methanone]",IC50,TMD-8 cells,130 ± 60 nM
same,IC50,Rec-1 cells,180 ± 70 nM
